Assay results: patent US11312675B2, “Crystalline polymorphs of 1,6-dibromo-1,6-dideoxy-dulcitol” (Targent, LLC, priority 2015, dated 2022)

How the values were obtained:
[1] = Kellner et al., Nature (1967); cited from earlier work
[2] = reported in the literature; cited from earlier work
[3] = Thermogravimetric analysis (TGA); format: physicochemical; conditions: heating from 25° C. to 450° C. at 10K/min
Description: The analysis was carried out using the Mettler Toledo Stare System with the following parameters. The sample was weighed in an aluminum pan hermetically sealed with an aluminum pierced cover. The analysis was performed heating the sample from 25° C. to 450° C. at 10K/min.

[4] = Stability tests (storage, analysed by XRPD); format: physicochemical
Description: The sample was stored in the following conditions (a) 25° C. and 60% RH for 7 days and (b) 60° C. and 75% RH for 3 days. The samples were analyzed after the test by XRPD.

| SMILES | antitumor effect [1] | solubility [2] | degradation of the sample (TGA profile) [3] | stability of the crystalline form (XRPD after storage) ([4]; 25° C. and 60% RH for 7 days) | stability of the crystalline form (XRPD after storage) ([4]; 60° C. and 75% RH for 3 days) |
| --- | --- | --- | --- | --- | --- |
| O[C@H]([C@H](O)[C@@H](O)CBr)[C@H](O)CBr [DBD, 1,6-dibromo-1,6-dideoxy-dulcitol] | selective a vigorous antitumor effect | poorly soluble | – | – | – |
| O[C@H]([C@H](O)[C@@H](O)CBr)[C@H](O)CBr [crystalline DBD polymorph, 1,6-dibromo-1,6-dideoxy-dulcitol] | – | – | approximately 170 °C | stable | stable |
